This is an account of results in patent US11707448B2, “Combination therapies for the treatment of cancer” (Eisai R&D Management Co., Ltd., priority 2014, dated 2023).

Data set [1] relates to CT26 tumors. Description: CT26 subcutaneous tumor model, ER-886046 with radiation. Type of data set: in vivo, mice. Here is the method: FIG. 1A to FIG. 1B. […] Panel shown in FIG. 1A) Average tumor sizes of the CT26 tumor-bearing mice that received 9 Gy radiation+ER-886046, 9 Gy radiation alone, or vehicle alone. Panel shown in FIG. 1B) Average animal body weight of the CT-26 tumor-bearing mice. Radiation treatment: 9 Gy single dose on day 9; ER-886046 dosing: 150 mg/kg, oral (po) administration daily from day 9 to day 32. Administration of radiation and ER-886046 to the tumor-bearing mice is indicated by the arrows and bars, respectively. N=10-12 per group. *, p<0.05, student t-test.
FIG. 2A to FIG. 2C. Tumor growth plots of the individual CT-26 tumors treated with radiation/ER-886046 or radiation alone. The animals are of the experiment described in FIG. 1A and FIG. 1B. Panel shown in FIG. 2A) Vehicle treatment group. Panel shown in FIG. 2C) Radiation plus ER-886046. N=10-12 per group. […] Radiation treatment: 9 Gy single dose on day 9; ER-886046 dosing: 150 mg/kg, oral (po) administration daily from day 9 to day 32. Each line represents an individual animal.
FIG. 3. Improved tumor growth suppression and animal survival by low dose radiation/ER-886046 compared with low dose radiation alone. Plots of animal survival status among indicated treatment groups. Radiation treatment: 3 Gy single dose on day 17; ER-886046 dosing: 150 mg/kg, po administration daily from days 17 to 45. […] N=10 per group. *, p<0.05; ***, p<0.001; Gehan-Breslow-Wilcoxon test.
Animal studies; In vitro cultured cancer cells were harvested and suspended in 100 μl of phosphate buffered saline at a cell concentration of 1.0×10^5 cells/ml and subcutaneously (sc) injected into the mice using a 26 g syringe on day 0. At the days post cell implantation as indicated in the figures, the mice were randomized based on the tumor size followed by treatments with radiation at 3 or 9 Gy dose per treatment, anti-PDL1 at 200 μg/mouse per intraperitoneal injection (ip), or anti-CTLA4 at 200 or 100 μg/mouse per ip injection with or without orally administration of ER-886046 at a dose of 150 mg/kg. The animals that were assigned to the treatment groups in individual study had close mean tumor weights in all groups. The tumor sizes were measured twice a week by a digital caliper (Mitutoyo Corp), and the volume was calculated using the formula (1×w^2)/2=mm^3, where 1 and w refer to the larger and smaller perpendicular dimensions collected at each measurement. Graphs of group tumor sizes (mean±SEM) and body weights (mean±SEM) versus time were plotted using software GraphPad Prism 6 (Lake Forest, Calif.). Student t-test and Gehan-Breslow-Wilcoxon test were used for statistical analysis.

The next data set has as its system 4T1 tumors. Description: Challenge of cured (tumor-free) mice with 4T1 cells. The settings on record: mice cured by ER-886046 + radiation; vs control (naive) group. Type of data set: in vivo. An excerpt:
FIG. 4A to FIG. 4C. Long lasting anti-tumor effect with a memory immune response by ER-886046/radiation treatment. Panel shown in FIG. 4A) Tumor growth in the cured mice by ER-886046 and radiation combination treatment or in the naïve Ba1B/c mice that received injection of CT26 cells. Panel shown in FIG. 4B) Tumor growth of secondarily challenged CT-26 tumors in the cured mice or in naïve mice. Panel shown in FIG. 4C) Growth of 4T1 tumors in cured mice or in naïve mice. N=9-10. Note the complete rejection of challenged CT-26 tumor and reduced growth of challenged 4T1 tumors in the combination cured mice. ***, p<0.001. 2 tailed student t-test. Note that no treatment was applied to any animals.
In case of tumor rechallenge of tumor-free mice after treatments, CT26 cells and 4T1 cells were individually sc injected into the different flanks of the same mouse, and the growth of each tumor was measured and graphed as described above. Naïve mice that received neither cancer cell injection nor drug treatment were included as controls. […] At the end of study on day 27, the mice in all treatment groups were intranasally administered luciferin and the lungs were resected and analysed for luciferase expression using IVIS instrument. Quantification of the luciferase activity in the lungs was achieved by software Living Image.

In another data set the test system is 4T1-luc2 tumors. The data set can be described thus: Spontaneous lung metastasis in 4T1-luc2 breast tumor model. Type of data set: in vivo, mice. Conditions: ER-886046 150 mg/kg po daily days 9-27 + single radiation 9 Gy; day 27. As to the method:
FIG. 6A to FIG. 6B. Anti-pulmonary metastasis activity of ER-886046/radiation in breast 4T1 tumor model. 4T1-luc2 cells were subcutaneously (sc) inoculated into the Ba1B/c mice. When the average size of tumors reached 100 mm^3, the tumors were radiated with a dose of 9 Gy once with or without daily oral administration of ER-886046 at dose of 150 mg/kg. Panel shown in FIG. 6A) At the end of study on day 27, lung metastasis of the animals was analyzed and quantified by luciferase expression. Panel shown in FIG. 6B) Representative IVIS images of each group are shown. Student t-test was used for statistic analysis.
In case of tumor rechallenge of tumor-free mice after treatments, CT26 cells and 4T1 cells were individually sc injected into the different flanks of the same mouse, and the growth of each tumor was measured and graphed as described above. […] At the end of study on day 27, the mice in all treatment groups were intranasally administered luciferin and the lungs were resected and analysed for luciferase expression using IVIS instrument. Quantification of the luciferase activity in the lungs was achieved by software Living Image.
Anti-spontaneous metastatic effect of ER-886046 and radiation combination therapy. […] At day 27, the mice in all treatment groups were intranasally administered luciferin and the lungs were resected and analyzed for luciferase expression.

In data set [2] the test system is CT26 tumors. Description: CT26 tumor model, ER-886046 with anti-PDL1 or anti-PD1. Type of data set: in vivo, mice. As to the method: FIG. 9A to FIG. 9B. […] Anti-PDL1 dosing: 200 μg per iv injection on days 9, 12, 15 and 18 post cell implantation as indicated by the arrows; […] Anti-PD1 dosing: 200 μg per iv injection on days 9, 12, 15, 18 and 21 post cell implantation as indicated by the arrows; […] Animal studies; In vitro cultured cancer cells were harvested and suspended in 100 μl of phosphate buffered saline at a cell concentration of 1.0×10^5 cells/ml and subcutaneously (sc) injected into the mice using a 26 g syringe on day 0. […] The animals that were assigned to the treatment groups in individual study had close mean tumor weights in all groups. […] Graphs of group tumor sizes (mean±SEM) and body weights (mean±SEM) versus time were plotted using software GraphPad Prism 6 (Lake Forest, Calif.). Student t-test and Gehan-Breslow-Wilcoxon test were used for statistical analysis.

The mark [3] stands for this setting: ER-886046 150 mg/kg po daily day 9-32 + radiation 9 Gy single dose day 9.

For the molecule `C[C@H](NC(=O)c1c(C(F)F)nn(C)c1Oc1cccc(C(F)(F)F)c1)c1ccc(C(=O)O)cc1` [ER-886046], the “gross health and animal body weight compared to radiation alone” value in the data set on CT26 tumors [1] (ER-886046 150 mg/kg po daily added to 9 Gy radiation) is “did not impact the gross health and animal body weight”. In the data set with CT26 tumors [1] (ER-886046 150 mg/kg po daily day 9-32 + radiation 9 Gy), the “tumors with fast progression” value was 1 out of 12. Besides, in the data set on CT26 tumors [1] (setting [3]), the “anti-tumor activity compared to radiation alone” value is recorded as “statistically significantly improved” and the “tumor growth (average tumor size)” value was “sustained tumor growth inhibition until the end of the study on day 49”. For the same molecule, the “cure (complete tumor regression)” value in the data set with CT26 tumors [1] (ER-886046 150 mg/kg po daily day 9-32 + radiation 9 Gy, end of study) is given as 9 out of 12. Also, the animal survival entry in the data set on CT26 tumors [1] (ER-886046 150 mg/kg po daily days 17-45 + low dose radiation 3 Gy single dose day 17, vs vehicle or radiation alone) is listed as “significantly increased the animal survival”. In the data set with CT26 tumors [1] (cured by ER-886046 + radiation, followed for an additional 2 months), the “tumor recurrence in the 9 tumor-free mice” value is “no tumor recurrence”. The “growth of 4T1 tumors in cured mice” value with 4T1 tumors is on record as “no rejection of the tumor, but the growth rate was significantly reduced”. Also, the “luciferase expression in lungs (lung metastasis)” value in the data set with 4T1-luc2 tumors is “significant reduction”. In addition, the “anti-tumor activity compared to anti-PDL1 alone” value in the data set on CT26 tumors [2] (ER-886046 150 mg/kg po daily day 9-19 + anti-PDL1 200 μg) is on record as “better anti-tumor activity”. In addition, in the data set on CT26 tumors [2] (ER-886046 150 mg/kg po daily day 9-23 + anti-PD1 200 μg), the “anti-tumor activity compared to anti-PD1 alone” value is reported as “better anti-tumor activity”.
